Assay results as given in US20250296909A1, “NOVEL BENZENE DERIVATIVE AND IMMUNOSUPPRESSION-RELATED USE THEREOF” (PROVIBIO CO., LTD., priority 2021, published 2025).

Columns and labels:
[1] = tested on: psoriasis mouse animal model; test: Psoriasis mouse animal model (imiquimod-induced); assay type: in vivo, BALB/c mice; settings: 40 mg/kg intraperitoneally twice a day
Description: To confirm the therapeutic effect of compounds according to the present invention on psoriasis, a psoriasis animal model was established to evaluate the alleviation of skin lesions and changes in immune cell profiles by administering Compound 69 or Compound 83 via injection.
To establish a psoriasis mouse animal model, BALB/c mice (7 weeks old, 20 g, female) were purchased from Hana Biotech Co. and allowed to acclimate to the housing environment for one week. Afterward, the fur on the dorsal area of the mice was initially shaved using a shaver, followed by complete removal with depilatory cream (Nicrin Cream, comprising thioglycolic acid 80%, manufactured by ILDONG Pharmaceutical CO., LTD). The mice were then housed for 24 hours to confirm any wounds on their backs.
Subsequently, in order to verify the preventive and therapeutic effects of compounds according to the present invention on psoriasis, five experimental groups were established as shown in FIG. 7 and Table 5. From the second to the fifth group, Aldara® cream was applied once daily for two weeks (14 days, total of 14 applications) at a dose of 80 mg (imiquimod, 4 mg) per mouse to induce psoriasis. Furthermore, to compare the preventive and therapeutic effects of compounds according to the present invention (Compound 69 and Compound 83) on psoriasis, 40 mg/kg of the compound per mouse was dissolved in DMSO corresponding to 10% of the dosing volume, and then diluted in a mixture of Cremophor EL-PEG 400-distilled water to achieve a final ratio of DMSO: Cremophor EL:PEG 400:distilled water to 1:1:4:4 (v/v/v/v). Subsequently, the respective injections were intraperitoneally administered at a dose of 100 μL per mouse, twice a day with a 12-hour interval. For the Vehicle control group, injections excluding the drug but comprising the vehicle solution (DMSO: Cremophor EL:PEG 400:distilled water=1:1:4:4 (v/v/v/v)) were administered at a dose of 100 μL per mouse, twice a day with a 12-hour interval.
To assess the impact of each compound on immune cells in vivo, the spleens of mice treated with each compound were harvested, and cells were extracted, and cells were suspended in MACS buffer (2 mM EDTA, 0.5% FBS, 137 mM NaCl, 2.7 mM KCl, 10 mM Na2HPO4, 1.8 mM KH2PO4, Miltenyi Biotech.). For flow cytometry analysis, each mouse's splenocytes were aliquoted at 5×10^5 cells per FACS tube (5 mL round tube, Falcon). To prevent non-specific antibody binding, each tube was treated with 1 μg/mL of anti-mouse CD16/CD32 (InVivoMAb) for 30 minutes, followed by centrifugation at 13,000 rpm for 5 minutes, and resuspended in 100 μL of MACS buffer. Subsequent experiments were conducted depending on the type of immune cells to be examined.
(§1) For B cells, each FACS tube was stained with 1 μg/mL of FITC-conjugated anti-B220 antibody (eBioscience™) at 4° C. for 30 minutes, followed by washing with 2 mL of MACS buffer. Subsequently, each tube was centrifuged at 15,000 rpm for 5 minutes, the supernatant was removed, and the precipitated cells were fixed using 200 μL of 4% paraformaldehyde solution.
For T cells, each FACS tube was stained with 1 μg/mL of PerCP-Cy5.5-conjugated anti-CD3 antibody (Biolegend), FITC-conjugated anti-CD8 antibody (eBioscience™) and Cy7-conjugated anti-CD4 antibody (eBioscience™) at 4° C. for 30 minutes, followed by washing with 2 mL of MACS buffer. Subsequently, each tube was centrifuged at 15,000 rpm for 5 minutes, the supernatant was removed, and the precipitated cells were fixed using 200 μL of 4% paraformaldehyde solution.
as §1, with “macrophages,” for “B cells,”, “anti-CD11b” for “anti-B220”

spleen T cells = test: Cytokine secretion by anti-CD3/CD28-activated T cells (Cytometric Bead Array); assay type: cell-based, C57BL/6 mice; settings: 30 μM
Protocol: To confirm the effect of compounds of the present invention on the secretion of cytokines by T cells, the following experiment was conducted.
Spleens were harvested and minced from C57BL/6 mice at 7 weeks of age, and single cells were isolated using a strainer (40 μm pore size, SPL). Red blood cells were removed using ACK (Ammonium-Chloride-Potassium) lysis buffer to isolate only leukocytes. These were then reacted with 10 v/v % CD90.2 microbeads (130-121-278, Miltenyi Biotech.) at 4° C. for 20 minutes, resulting in the isolation of spleen T cells from magnetic-based purification. The T cells were cultured in a 96-well plate at an amount of 2×10^5 cells/well. For T cell activation, each well was treated with anti-CD3/CD28 antibodies at a concentration of 1 μg/mL. Subsequently, Vehicle (DMSO) and compounds (Compound 14, Compound 19, Compound 26, Compound 31, Compound 35, Compound 40, Compound 41, Compound 56, Compound 69, Compound 75) at a concentration of 30 μM were treated in each well, and it was cultured at 37° C. in a 5% CO2 incubator. After 24 and 72 hours, the T cell culture medium was taken, and centrifugation was performed at 13,000 rpm for 10 minutes to obtain the supernatant.
To measure the concentration of cytokines present in the T cell culture medium, Mouse Th1/Th2/Th17 Cytokine CBA Kit (Cytometric Bead Array kit) 560485 from BD Science was utilized for flow cytometry analysis. The secretion levels of IL-2 at 24 hours after each drug treatment, and IFN-γ, TNF-α, and IL-17A at 72 hours were measured after each drug treatment.

[2] = flow cytometry, versus psoriasis groups, FIG. 10

CCCCCCCCCCCCNC(=O)c1cccnc1N [Compound 69]
skin lesions (erythema, thickness, exfoliation of back skin) ([1]; 14 days, FIG. 8): either minimally present or hardly observed | hyperkeratosis, parakeratosis, irregular acanthosis, infiltration of inflammatory cells (H&E staining) ([1]; 14 days, FIG. 9): either minimally present or hardly observed | proportion of B cells in the spleen [1, 2]: increase | proportion of CD11b granulocytes in the spleen [1, 2]: decreased | proportion of T cells in the spleen [1, 2]: increase | secretion of IL-2 (spleen T cells; 24 hours after treatment, FIG. 3): significant decrease | secretion of IFN-γ (spleen T cells; 72 hours after treatment): significant decrease | secretion of IL-17A (spleen T cells; 72 hours after treatment): significant decrease | secretion of TNF-α (spleen T cells; 72 hours after treatment): significant decrease
